Laboratory results from patent publication US20070056052A1, “Methods of generating knock-out rodents” (priority 2001, published 2007).

Test system: SD rats
Test: Heritability test of F1 phenodeviant rats bred to SD rats
Type: in vivo, rat
Experimental: ENU mutagenesis rat protocol: Pathogen-free inbred Wistar Furth (WF), inbred Fischer-344 (F344) and outbred Sprague Dawley (SD) male and female rats were obtained from Harlan Sprague Dawley, Inc. (Indianapolis, Ind.). All rats were given Teklad Lab Blox chow (Harlan Teklad, Madison, Wis.), acidified water ad libitum, and were housed under a 12-h light/12-h dark cycle. After a one week acclimation period, nine-week-old male rats were administered ENU as a single intraperitoneal injection; for a split dose, rats were injected with ENU once at 9 weeks of age and again at 10 weeks of age. One gram of ENU (Sigma) was dissolved in 10 mls of 95% ethanol and then diluted with 90 mls of phosphate citrate buffer prior to injection. All injections of ENU were given in the morning hours. To characterize the effect of ENU treatment on fertility in the various rat strains, mutagenized males were paired with untreated females of the same strain for consecutive 2-3 week periods, beginning 3-5 weeks after the first ENU treatment and continuing a minimum of 26 weeks post-ENU. We observed female rats for vaginal plugs, gross pregnancy and date of birth/size of litters. For our phenotypic mutant (phenodeviant) rat screening experiments, ENU-treated SD male rats were bred with SD female rats and all F1 pups were visually checked for gross abnormalities in physical development or behavior as compared to littermates at least twice prior to weaning at approximately 21 days of age. A subset of the F1 phenodeviant rats identified was bred to SD rats to determine inheritance of the observed phenotypic mutation. Several of the heritable phenodeviant rat lines are currently being maintained and backcrossed to eliminate residual ENU-induced genetic changes not associated with the phenotypic mutation.
Phenodeviant rat production: Multiple ENU dosing protocols in the SD rat strain determine their germline mutagenic potential by breeding ENU-treated SD males to females of the same strain to produce F1 offspring. These pups were examined for readily observable physical or behavioral abnormalities. Phenodeviants were identified at all doses listed in Table 2 with a variety of abnormalities observed. Phenodeviant F1 pups were born at various times between 6-52 weeks post-ENU treatment of male founders. The most frequent abnormalities visually identified were those of the eyes, tail, and growth. […] Selected phenodeviant rat F1 pups were maintained and bred to determine the heritability of the physical abnormalities (Table 3). […] These abnormalities were diverse (Table 4).

CCN(N=O)C(N)=O [ENU, N-ethyl-N-nitrosourea]
ENU-induced heritable phenotype, observed phenotype (Line 18, F1 founder female, initial ENU dose 2 × 60 mg/kg): crooked tail & slit eyes
Heritable phenotype confirmed in multiple litters (Line 18, initial ENU dose 2 × 60 mg/kg): yes
ENU-induced heritable phenotype, observed phenotype (Line 19, F1 founder male, initial ENU dose 2 × 50 mg/kg): growth on tail
Heritable phenotype confirmed in multiple litters (Line 19, initial ENU dose 2 × 50 mg/kg): yes
ENU-induced heritable phenotype, observed phenotype (Line 28, F1 founder female, initial ENU dose 2 × 60 mg/kg): red ring eyes
Heritable phenotype confirmed in multiple litters (Line 28, initial ENU dose 2 × 60 mg/kg): yes
ENU-induced heritable phenotype, observed phenotype (Line 29, F1 founder female, initial ENU dose 2 × 60 mg/kg): oblong face
Heritable phenotype confirmed in multiple litters (Line 29, initial ENU dose 2 × 60 mg/kg): yes
ENU-induced heritable phenotype, observed phenotype (Line 32, F1 founder female, initial ENU dose 2 × 60 mg/kg): slit eyes
Heritable phenotype confirmed in multiple litters (Line 32, initial ENU dose 2 × 60 mg/kg): yes
ENU-induced heritable phenotype, observed phenotype (Line 38, F1 founder male, initial ENU dose 2 × 60 mg/kg): curved tail
Heritable phenotype confirmed in multiple litters (Line 38, initial ENU dose 2 × 60 mg/kg): yes
ENU-induced heritable phenotype, observed phenotype (Line 42, F1 founder female, initial ENU dose 2 × 60 mg/kg): bald spots
Heritable phenotype confirmed in multiple litters (Line 42, initial ENU dose 2 × 60 mg/kg): yes
ENU-induced heritable phenotype, observed phenotype (Line 60, F1 founder female, initial ENU dose 2 × 60 mg/kg): scaly skin
Heritable phenotype confirmed in multiple litters (Line 60, initial ENU dose 2 × 60 mg/kg, only one litter to date): no^a
ENU-induced heritable phenotype, observed phenotype (Line 61, F1 founder male, initial ENU dose 2 × 60 mg/kg): swollen feet
Heritable phenotype confirmed in multiple litters (Line 61, initial ENU dose 2 × 60 mg/kg, only one litter to date): no^a
Heritable phenotype confirmed in multiple litters (Line 63, initial ENU dose 2 × 60 mg/kg): yes
# phenodeviants heritable (SD, ENU dose 100 mg/kg): 0
# phenodeviants non-heritable (SD, ENU dose 100 mg/kg): 4
# phenodeviants unknown (sterile, not evaluated, being evaluated or died) (SD, ENU dose 100 mg/kg): 4
# phenodeviants heritable (SD, ENU dose 120 mg/kg): 0
# phenodeviants non-heritable (SD, ENU dose 120 mg/kg): 2
# phenodeviants unknown (sterile, not evaluated, being evaluated or died) (SD, ENU dose 120 mg/kg): 1
# phenodeviants heritable (SD, ENU dose 2 × 50 mg/kg): 1
# phenodeviants non-heritable (SD, ENU dose 2 × 50 mg/kg): 4
# phenodeviants unknown (sterile, not evaluated, being evaluated or died) (SD, ENU dose 2 × 50 mg/kg): 2
# phenodeviants heritable (SD, ENU dose 2 × 60 mg/kg): 9
# phenodeviants non-heritable (SD, ENU dose 2 × 60 mg/kg): 9
# phenodeviants unknown (sterile, not evaluated, being evaluated or died) (SD, ENU dose 2 × 60 mg/kg): 61
heritability of mutations in phenodeviants tested (SD, single dose protocols): none of the six phenodeviant rats tested showed heritable mutations
